Laboratory results published in PMC9578396, “Intrinsic Antibacterial Activity of Xeruborbactam In Vitro: Assessing Spectrum and Mode of Action” (Antimicrobial Agents and Chemotherapy, 2022).
Values after ≈ are worked out from the molar mass of the structure shown. Like-named read-outs stand apart in the source and are kept apart here.

Tests used:
PBP1a = biological target: T1, PBP1a (Escherichia coli, UniProt P02918); parameters: method as in PMID 18250190; conditions: read-out: IC50, PBP1a; value in parentheses; E. coli MC1400; cited from earlier work
T1 construct: Five microliters of total bacterial membrane preparation was mixed with 5 μL of a test compound; endogenous in cells; host or cells: Escherichia coli ECM5497 (MG1655), total membrane preparation
T1 sequence (P02918 whole entry): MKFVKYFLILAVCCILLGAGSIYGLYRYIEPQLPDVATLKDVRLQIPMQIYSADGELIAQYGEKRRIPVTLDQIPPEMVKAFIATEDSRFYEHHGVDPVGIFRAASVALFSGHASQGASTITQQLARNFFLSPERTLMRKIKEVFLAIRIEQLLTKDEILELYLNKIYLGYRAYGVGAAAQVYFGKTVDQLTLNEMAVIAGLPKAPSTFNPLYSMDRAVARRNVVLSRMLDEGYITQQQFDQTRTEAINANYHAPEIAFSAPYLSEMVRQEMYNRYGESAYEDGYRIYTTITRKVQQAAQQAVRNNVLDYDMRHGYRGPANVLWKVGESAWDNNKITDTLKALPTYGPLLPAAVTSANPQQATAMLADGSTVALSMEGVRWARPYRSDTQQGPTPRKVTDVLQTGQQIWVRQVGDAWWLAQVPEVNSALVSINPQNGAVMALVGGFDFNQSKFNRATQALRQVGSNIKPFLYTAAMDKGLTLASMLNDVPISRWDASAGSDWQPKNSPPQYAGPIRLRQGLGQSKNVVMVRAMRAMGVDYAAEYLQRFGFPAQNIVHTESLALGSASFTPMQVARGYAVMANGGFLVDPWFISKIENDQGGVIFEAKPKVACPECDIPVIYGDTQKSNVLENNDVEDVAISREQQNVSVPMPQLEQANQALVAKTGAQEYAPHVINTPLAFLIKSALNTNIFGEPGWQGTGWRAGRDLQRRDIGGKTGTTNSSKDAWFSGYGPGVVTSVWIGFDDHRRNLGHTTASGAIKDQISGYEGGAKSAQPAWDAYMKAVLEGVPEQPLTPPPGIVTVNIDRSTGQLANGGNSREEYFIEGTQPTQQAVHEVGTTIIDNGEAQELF

PBP1b = biological target: T2, PBP1b (Escherichia coli, UniProt P02919); parameters: method as in PMID 18250190; conditions: read-out: IC50, PBP1b; value in parentheses; E. coli MC1400; cited from earlier work
T2 construct: Five microliters of total bacterial membrane preparation was mixed with 5 μL of a test compound; endogenous in cells; host or cells: Escherichia coli ECM5497 (MG1655), total membrane preparation
T2 sequence (P02919 whole entry): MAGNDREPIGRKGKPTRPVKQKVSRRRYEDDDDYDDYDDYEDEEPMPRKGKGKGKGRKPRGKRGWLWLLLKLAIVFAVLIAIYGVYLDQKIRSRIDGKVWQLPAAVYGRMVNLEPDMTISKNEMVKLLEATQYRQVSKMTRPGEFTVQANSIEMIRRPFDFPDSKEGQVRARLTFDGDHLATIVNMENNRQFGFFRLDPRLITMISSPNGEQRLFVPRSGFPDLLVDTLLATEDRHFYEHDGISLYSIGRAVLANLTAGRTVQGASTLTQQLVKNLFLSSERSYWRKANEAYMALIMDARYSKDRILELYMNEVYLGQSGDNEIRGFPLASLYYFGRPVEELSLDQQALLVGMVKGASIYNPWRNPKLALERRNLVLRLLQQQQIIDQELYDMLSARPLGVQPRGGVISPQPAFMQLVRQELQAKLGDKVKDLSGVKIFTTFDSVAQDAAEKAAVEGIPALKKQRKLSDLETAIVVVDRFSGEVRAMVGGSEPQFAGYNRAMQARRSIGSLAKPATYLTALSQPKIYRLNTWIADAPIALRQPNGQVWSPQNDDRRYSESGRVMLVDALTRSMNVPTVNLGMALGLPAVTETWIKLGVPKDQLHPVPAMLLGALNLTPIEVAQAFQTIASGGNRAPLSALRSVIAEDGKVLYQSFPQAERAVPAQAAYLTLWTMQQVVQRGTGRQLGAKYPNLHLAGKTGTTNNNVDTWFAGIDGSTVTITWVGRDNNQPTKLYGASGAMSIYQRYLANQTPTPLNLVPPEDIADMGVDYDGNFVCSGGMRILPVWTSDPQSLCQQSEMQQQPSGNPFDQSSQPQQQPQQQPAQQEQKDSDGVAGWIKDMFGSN

PBP3 [1] = biological target: PBP3 (Klebsiella pneumoniae, UniProt A0A0H3GN85); parameters: method as in PMID 29712652; conditions: read-out: IC50, PBP3; value in parentheses; K. pneumoniae ATCC 43816; cited from earlier work
Sequence of PBP3 (Klebsiella pneumoniae, UniProt A0A0H3GN85) (A0A0H3GN85 entry or part of it): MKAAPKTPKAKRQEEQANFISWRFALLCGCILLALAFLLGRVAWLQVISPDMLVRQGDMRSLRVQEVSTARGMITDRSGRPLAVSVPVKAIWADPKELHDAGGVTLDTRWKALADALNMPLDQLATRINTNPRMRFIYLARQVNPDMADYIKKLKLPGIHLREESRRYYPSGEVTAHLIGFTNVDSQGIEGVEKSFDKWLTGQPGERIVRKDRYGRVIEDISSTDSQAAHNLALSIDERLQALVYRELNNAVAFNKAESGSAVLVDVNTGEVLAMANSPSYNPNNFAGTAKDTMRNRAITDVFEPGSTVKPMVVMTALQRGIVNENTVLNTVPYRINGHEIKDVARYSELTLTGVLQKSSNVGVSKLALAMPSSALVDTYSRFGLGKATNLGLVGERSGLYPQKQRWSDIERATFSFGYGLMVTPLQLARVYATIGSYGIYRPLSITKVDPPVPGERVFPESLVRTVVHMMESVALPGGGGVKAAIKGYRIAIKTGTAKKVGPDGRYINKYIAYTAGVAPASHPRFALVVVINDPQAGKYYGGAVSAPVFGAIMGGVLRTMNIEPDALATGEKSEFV

PBP3 [2] = biological target: PBP3 (Acinetobacter baumannii, UniProt A0ABX6CK25); parameters: method as in earlier work; conditions: read-out: IC50, PBP3; value in parentheses; A. baumannii ATCC 19606; cited from earlier work
Sequence of PBP3 (Acinetobacter baumannii, UniProt A0ABX6CK25) (A0ABX6CK25 entry or part of it): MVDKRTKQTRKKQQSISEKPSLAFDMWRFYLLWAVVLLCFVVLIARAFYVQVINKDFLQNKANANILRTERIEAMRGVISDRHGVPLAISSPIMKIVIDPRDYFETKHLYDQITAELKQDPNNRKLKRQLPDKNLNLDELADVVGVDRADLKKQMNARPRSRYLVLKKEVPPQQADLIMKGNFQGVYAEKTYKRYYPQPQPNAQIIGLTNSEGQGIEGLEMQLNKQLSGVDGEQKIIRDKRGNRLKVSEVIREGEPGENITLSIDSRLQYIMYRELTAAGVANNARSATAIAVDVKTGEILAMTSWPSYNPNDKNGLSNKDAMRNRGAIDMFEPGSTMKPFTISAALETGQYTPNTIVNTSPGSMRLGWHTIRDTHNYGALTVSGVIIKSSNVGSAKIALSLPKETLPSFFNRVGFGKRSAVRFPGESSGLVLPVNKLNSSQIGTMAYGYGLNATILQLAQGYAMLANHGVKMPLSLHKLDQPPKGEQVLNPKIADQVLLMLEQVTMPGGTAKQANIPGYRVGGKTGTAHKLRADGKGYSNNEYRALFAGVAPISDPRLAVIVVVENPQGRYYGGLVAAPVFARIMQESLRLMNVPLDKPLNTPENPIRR

[3] = test system: Enterobacter cloacae species complex; assay: Broth microdilution MIC (CLSI), Enterobacter cloacae; type: cell-based; conditions: for MIC: Enterobacter cloacae
Source text: (§1) Bacterial isolates were subjected to broth microdilution susceptibility testing, performed according to Clinical and Laboratory Standards Institute (CLSI) methods ([46]), using panels prepared in-house. Meropenem was purchased from Sandoz, and all other antibiotics were from Sigma-Aldrich. Xeruborbactam was synthesized at Qpex Biopharma, San Diego, CA. Avibactam was purchased from eNovation Chemicals LLC, Bridgewater, NJ, USA; zidebactam was from MedKoo Biosciences, Inc., Morrisville, NC, and nacubactam was from Advanced ChemBlocks, Hayward, CA. Durlobactam was synthesized at Acme Bioscience, Palo Alto, CA, USA.

Proteus mirabilis = assay: Broth microdilution MIC (CLSI), Proteus mirabilis; type: cell-based; conditions: 23 isolates
Source text: as §1

[4] = test system: Klebsiella pneumoniae strain KPM1026a; assay: Time-kill study; type: cell-based
[5] = test system: K. pneumoniae strain KPM1026a
Description: Beta-lactamase-negative strains of E. coli (strain ECM5497), A. baumannii (strain AB1007), and K. pneumoniae (strain KPM1026a) were used in resistance development studies. […] Colonies were incubated for 24 h at 37°C before the frequency of resistance emergence was calculated as the ratio of the number of CFU grown on the xeruborbactam-containing plate over the number of CFU recorded for xeruborbactam-free plates. Single colonies from xeruborbactam-containing plates were grown twice on a nonselective medium before their antimicrobial-resistance levels were assessed. For K. pneumoniae KPM1026a, several independent cultures were used in resistance studies.

[6] = test system: P. aeruginosa strain PAM1154; assay: Fluorescence microscopy, cellular morphology; type: cell-based, Pseudomonas aeruginosa; conditions: treated at 1× or 2× MIC
Description: Single colonies of K. pneumoniae strain KPM1026a, A. baumannii strain ATCC 17978, and P. aeruginosa strain PAM1154 were picked from LB agar plates, inoculated in cation-adjusted Mueller-Hinton broth (CA-MHB), and incubated overnight at 30°C with rolling. Overnight cultures were diluted into fresh CA-MHB and incubated at 30°C, with rolling, until they reached an OD600 of ≈0.12 to 0.15 (equivalent to ~2 × 10^8 CFU/mL). Samples were then treated with compounds and incubated at 30°C, with rolling. After 1 or 2 h of treatment, cells were collected and stained with a dye mix containing FM4-64 (1 μg/mL), DAPI (4′,6-diamidino-2-phenylindole) (2 μg/mL), and SYTOX green (0.5 μM) (Molecular Probes, Invitrogen, or Thermo Fisher Scientific). Cells were transferred onto an agarose pad containing 1.2% agarose and 20% LB medium for microscopy. Microscopy was performed as previously described ([34]).

[7] = biological target: PBP1a/PBP1b, PBP2, and PBP3; assay: Bocillin FL competition PBP binding assay, summary for two species; conditions: PBP2, and PBP3 from E. coli and K. pneumoniae, read-out: IC50 range
Description: Ten milliliters of overnight bacterial culture was inoculated in 1 L of LB medium and grown to an OD600 of 0.7 to 0.9. The cell pellet was washed once with 50 mL of solution containing 100 mM Na-phosphate at pH 7.0 and 100 mM NaCl and resuspended in 10 mL of the same buffer with one tablet of EDTA-free mini-protease inhibitor and 10 mg of lysozyme. Cell suspensions were incubated for 45 min at 37°C, and then 200 μL of DNase I was added along with MgSO4 (to a final concentration of 10 mM), followed by three cycles of freeze-thawing (10 min and 20 min, respectively). Four cycles of sonication at maximum power were performed next, each cycle lasting for 30 s with 1 min on ice between cycles. The cell suspension was centrifuged at 12,000 × g for 10 min at 4°C. The supernatant was collected and centrifuged at 100,000 × g for 45 min at 4°C. The pellet was washed three times with 10 mL of 100 mM Na-phosphate, pH 7.0, by resuspension and subsequent centrifugation at 100,000 × g for 10 min at 4°C. The pellet was finally resuspended in 1.5 mL of 100 mM Na-phosphate, pH 7.0, and passed several times through a Dounce homogenizer (tight pestle). […]
Five microliters of total bacterial membrane preparation was mixed with 5 μL of a test compound at a desired concentration in 100 mM Na-phosphate buffer, pH 7.0. […] IC50 values were calculated with Prism software (GraphPad).

[8] = Enterobacter cloacae species complex, 45 isolates

Compound | IC50 (PBP1a) | IC50 (PBP1b) | IC50 (PBP3 [1]) | IC50 (PBP3 [2]) | MIC50 [3, 8] | MIC90 [3, 8] | MIC range [3, 8] | MIC ([3]; Enterobacter cloacae species complex isolates, read-out: highest MIC observed) | MIC ([3]; clinical isolate ECL1057, OmpK35 FN, OmpK36 NF, read-out: MIC) | MIC ([3]; clinical isolate ECL1079, OmpK35 NF, OmpK36 NF, read-out: MIC) | MIC ([3]; clinical isolate ECL1126, OmpK35 FN, OmpK36 FN, read-out: MIC) | MIC ([3]; clinical isolate ECL1131, OmpK35 NF, OmpK36 FN, read-out: MIC) | MIC50 (Proteus mirabilis) | MIC90 (Proteus mirabilis) | kinetics of killing [4] | frequency of resistance (FOR) ([5]; at 2× MIC) | frequency of resistance (FOR) ([5]; at 4× MIC) | cellular morphology [6] | IC50 [7]
C[C@@H](O)[C@H]1C(=O)N2C(C(=O)O)=C(S[C@@H]3CN[C@H](C(=O)N(C)C)C3)[C@H](C)[C@H]12 [Meropenem] | 4.4 µM | 3.4 µM | 310 nM | 330 nM |  |  |  |  |  |  |  |  |  |  |  |  |  |  | 
O=C(O)c1c(F)ccc2c1OB(O)[C@@H]1C[C@H]21 [Xeruborbactam] |  |  |  |  | 16 µg/mL (≈ 72.1 µM) | 32 µg/mL (≈ 144 µM) | 4 to 64 µg/mL | 64 µg/mL (≈ 288 µM) | 64 µg/mL (≈ 288 µM) | 64 µg/mL (≈ 288 µM) | 16 µg/mL (≈ 72.1 µM) | 16 µg/mL (≈ 72.1 µM) | 16 µg/mL (≈ 72.1 µM) | 32 µg/mL (≈ 144 µM) | time-dependent, concentration-independent bacterial killing | 2 × 10^−8 | < 3 × 10^−9 | filamentation and bulge formation at midcell and eventual cell lysis from the midpoint | 40 to 70 µM
